The nature of data set [1]: Transport across the BBB, in vitro bovine cell assay (co-culture, transwell). The conditions noted are these: pH 7.4. An excerpt:
(§1) The evaluation method chosen to test the compounds of formula (I) and (II) of the invention was a cell-based assay consisting of a co-culture of brain endothelial cells and astrocytes, which allows to evaluate or to predict the transport of compounds through the BBB. The co-culture method used was described by Gaillard and de Boer in 2008 (Gaillard, PJ et al. "2B-Trans technology: targeted drug delivery across the blood-brain barrier" Methods Mol Biol 2008, vol. 437 pp. 161-175) and consists in seeding of rat astrocytes in a side of a polycarbonate filter (transwell) and bovine brain endothelial cells on the other side of the filter. Under these conditions endothelial cells are able to reach the confluence mimicking the BBB. […] Is commonly used model for permeation studies and toxicity of compounds across the BBB.
(§2) The co-culture assay was used to determine the capacity of the constructs cargo-shuttle to cross the BBB. The apparent permeability of the compounds was measured in triplicate at a concentration of 200 µ M for Examples 1, 2, 3, 5, 10, 13, 15, 16, 17 and 19 and at a concentration of 1.75 µM for Example 21. All the assays were performed with transendothelial electrical resistance values equal or higher than 100 Ω · cm^2 and were carried out in the presence of lucifer yellow to assess the integrity of the cell membrane during the test. The permeability tests were performed in Ringer-HEPES buffer at pH 7.4. The compound of interest was dissolved in the buffer to the desired concentration.
(§3) Once the endothelial cells were confluent on the filters (transwells) these were washed with Ringer-HEPES buffer. The acceptor well was filled with 800 µ L of Ringer-HEPES buffer and the donor well with 200 µL of the solution of the compound to be studied. The system was incubated at 37 °C and 5% CO2 for 2 h. After that time the content of the acceptor and donor compartments were analyzed by HPLC-UV, direct ELISA or fluorescence (depending on cargo anchored to the shuttle). […] The apparent permeability was calculated using the following equation: Papp = (dQ/dt) * (1/A) * (1/CO) (cm/s), where (dQ/dt) is the amount of compound present in the compartment acceptor function of time (nmol/s). A is the area of the filter(cm2) and CO is the initial concentration of the compound applied in the donor compartment (nmol/mL).

Data set [2] relates to bovine brain endothelial cells. Described as above. As to conditions: bovine cell model, 2 h, 37 °C, Ringer-HEPES pH 7.4; 200 µM (Example 21: 1.75 µM).
Description: as §1, §2, §3

The test system of data set [3] is mice. As to conditions: amount in 200 µL injected; cited from earlier work.
Data set [4] relates to mice. As to the kind of experiment: Acute toxicity (lethality) after intracaudal injection in mice. Type of data set: in vivo, Swiss white mice. As to conditions: six mice, observed up to 24 hours. The protocol:
(§4) • 1) In zebra fish: The assay was performed by Neuron Bio (Granada). The protocol was based on the assessment of the acute toxicity of substances on zebra fish (Danio rerio) using a static method. This short-term toxicity assay method replicated the guidelines of the document OECD Draft Guideline for the study of chemicals, Fish Embryo Toxicity (FET) Test (30 May, 2006). 5 concentrations were evaluated (4.6, 10, 22, 46 and 100 mg/L) in water containing 0.1% DMSO. A control group (vehicle: water and 0.1 % DMSO) and a group with 3,4-dicloroaniline were set up to make sure test conditions were reproducible. […] Apamin (SEQ ID NO:16) was dissolved in phosphate buffer saline (vehicle) so that 200 µL would contain 50 nmol of this peptide (corresponding to its LD50). Compound with SEQ ID NO:9 was dissolved in the same buffer so that 200 µL would contain 1200 nmol of this peptide (near the solubility limit). A first group of six mice (male, 20±2 g, Swiss white mice) were injected with 200 µL of apamin. A second group of six mice were injected with 200 µL of compound with SEQ ID NO:9. A third group of mice were injected with 200 µL of vehicle.

For another data set, the system named is zebra fish (Danio rerio). Briefly: Acute toxicity in zebra fish, Fish Embryo Toxicity (FET) test. Type of data set: in vivo. As to conditions: static method, 4.6, 10, 22, 46 and 100 mg/L in water containing 0.1% DMSO. The protocol: as §4
A short description of data set [5]: Stability of the shuttles in human serum. The data set is classed as in vitro ADME. As to conditions: 400 µM, HBSS, 37 °C, 90% human serum, 24 h. On the procedure:
Regarding to the stability study in human serum of the BBB-shuttle (examples 1, 2, 3 and 5), the peptides were incubated at a concentration of 400 µM in buffer HBSS at 37 °C in the presence of 90% human serum. At a range of times, 100 µL aliquots were collected to which methanol was added in order to precipitate the serum proteins. Samples were centrifuged, filtered and analyzed by HPLC-UV and MALDI-TOF MS to determine the degree of degradation of the BBB-shuttle. […] The half life of the derivative bearing a single disulfide bond was 3 h (examples 2), whereas that of the linear version was no more than 8 min.

A short description of data set [6]: PAMPA assay (passive diffusion). The data set is classed as in vitro ADME. The conditions noted are these: 400 µM, pH 7.4, 4 h, 20°C, four replicates. On the procedure:
The buffer was prepared from the concentrated solution by plON, following the manufacturer's instructions. The pH was adjusted to 7.4 using a solution of 0.5 M NaOH. The PAMPA sandwich was separated, and the donor well was filled with 195 µL of the compound with SEQ ID NO 9 (400 µM) solution and a stirring magnet was added. The acceptor plate was then placed into the donor plate. Next, 4 µL of the 20 mg/mL phospholipid mixture (PBLEP) in dodecane was added to the filter of each well, and 200 µL of buffer solution was added to each acceptor well. The plate was then covered. Four replicates were performed for each compound. The PAMPA plate was incubated for 4 h at 20°C and under saturated atmosphere in a GUT-BOXTM apparatus under an agitation vigorous enough to reduce the unstirred water layer (UWL) to 25 µm. After the incubation, the sandwich was separated, and an aliquot of each donor and acceptor well was analyzed by RP-HPLC-UV ad MALDI-TOF MS.
(In PAMPA a lipid-coated filter parts donor from acceptor wells.)

The nature of data set [7]: Evidences of active transport in the bovine cell model (NaN3 inhibition, saturation, 4 °C, abluminal-luminal). Type of data set: in vitro ADME. The conditions noted are these: bovine; 200 µM, 37 °C, 2 h, abluminal compartment as donor. On the procedure:
(§5) 1) NaN3 inhibition: Sodium azide (NaN3) is an inhibitor of the resipiratory pathway and, therefore, decreases energy-dependent processes such as transcytosis. […] 2) saturation: Three concentrations of the compound with SEQ ID NO9 were assayed following the procedure of the Example 28.
(§6) The results are consistent with a saturable transport mechanism considering the plateau region has been reached at 100 µM. 3) dramatic decrease in permeability at reduced temperature: The procedure of the Example 28 was followed until the endothelial cells were confluent. To perform the experiment, the filters (transwells) were washed with Ringer-HEPES buffer. The abluminal compartment was filled with 800 µL of Ringer-HEPES and the luminal compartment was filled with 200 µL of the compound with SEQ ID NO 9 in Ringer-HEPES (200 µM). The system was incubated at 4 °C and 5 % CO2 for 2 h. […] The permeability at 4 °C is 0.23±0.04)·10^-6 cm/s, which is dramatically lower (P < 0.0001, unpaired t-test) than at 37 °C. This low transport is consistent with an energy-dependent process. 4) luminal-abluminal transport > abluminal-luminal transport.: The procedure of the Example 28 was followed until the endothelial cells were confluent. […] The abluminal compartment (in this experiment the donor) was filled with 800 µL of the compound with SEQ ID NO 9 in Ringer-HEPES (200 µM) and the luminal compartment (in this experiment the acceptor) with 200 µL Ringer-HEPES.

Data set [8] concerns bovine brain endothelial cells. The description is as above. The data set is classed as in vitro ADME. As to conditions: for Relative transport: saturation. The protocol:
as §5, §6

Data set [9] in a line: Solubility limit in phosphate buffer saline (dosing solution). Type of data set: physicochemical. The conditions noted are these: in 200 µL phosphate buffer saline. On the procedure:
as §4

Positions of bridges follow the written chain, without caps; N, C: chain ends. Residues, ends and D or L forms follow the SMILES beside them.

With `CC(C)C[C@@H]1NC(=O)[C@H](C)NC(=O)[C@H]([C@@H](C)O)NC(=O)[C@H](CCC(=O)O)NC(=O)[C@@H]2CCCN2C(=O)[C@H](C)NC(=O)[C@H](CCCCN)NC(=O)[C@@H]2CSSC[C@@H](C(=O)N[C@@H](CCC(N)=O)C(=O)N[C@@H](CCC(N)=O)C(=O)N[C@@H](Cc3cnc[nH]3)C(N)=O)NC(=O)[C@H](CCCNC(=N)N)NC(=O)[C@H](CCCNC(=N)N)NC(=O)[C@H](C)NC(=O)[C@H](CSSC[C@H](N)C(=O)N[C@@H](CC(N)=O)C(=O)N2)NC1=O` [Comparative example 1, H-Cys-Asn-Cys-Lys-Ala-Pro-Glu-Thr- Ala-Leu-Cys-Ala-Arg-Arg-Cys-Gln-Gln-His-NH2, reference compound], the apparent permeability coefficient (Papp) (usually a coefficient for how fast a substance crosses the barrier) in data set [1] was 0.8 ± 0.1 ×10⁻⁶ cm/s. Also, in [2], the “Transport (%) (2h)” value stood at 0.9±0.2%. The LD50 in the data set with mice [3] is reported as 50 nmol. In the data set with mice [4] (50 nmol in 200 µL), the animals that died entry was “two” and the “animals that showed convulsions during the first hours” value is given as “All the animals”.

Take `CC(C)C[C@@H]1NC(=O)[C@H](C)NC(=O)[C@H]([C@@H](C)O)NC(=O)[C@H](CCC(=O)O)NC(=O)[C@@H]2CCCN2C(=O)[C@H](C)NC(=O)[C@H](CCCCN)NC(=O)[C@@H]2CSSC[C@@H](C(=O)N[C@@H](Cc3c[nH]cn3)C(N)=O)NC(=O)[C@H](C)NC(=O)[C@H](C)NC(=O)[C@H](C)NC(=O)[C@H](CSSC[C@H](N)C(=O)N[C@@H](CC(N)=O)C(=O)N2)NC1=O` [Example 1, H-Cys-Asn-Cys-Lys-Ala-Pro-Glu-Thr-Ala-Leu-Cys-Ala-Ala-Ala-Cys-His-NH2] (H-CNCKAPETALCAAACH-NH2; disulfide 1-11, 3-15): the “lethal parameters of the embryos” value in the data set on zebra fish (Danio rerio) was “None of the lethal parameters studied in the embrios treated with the compound with SEQ ID NO:9 was different from those treated with the vehicle”. The “degradation in human serum” value in data set [5] was “No degradation”. In data set [1] (bovine), this compound showed a Papp at 2 h of 2.7 ± 0.3 ×10⁻⁶ cm/s. In [2], the “Transport (%) (2h)” value is recorded as 3.2±0.3%. Besides, in [6], the “detection in PAMPA by HPLC-UV” value is reported as “could not be detected” and the “detection in PAMPA by MALDI-TOF MS” value is reported as “only in two out of four replicates was found”. Moreover, in the data set with mice [4] (1200 nmol in 200 µL), the animals that died result is recorded as “no animal” and the “animals that showed any envenomation symptoms” value is “no animal”. Moreover, in [7], the Papp B→A (usually how fast a substance crosses the layer from the basolateral side) at 2 h, 200 µM amounted to 1.06 ± 0.03 ×10⁻⁶ cm/s. The “permeability at 4 °C” value in [8] (200 µM, 4 °C, 5 % CO2, 2 h, luminal to abluminal) is 0.23±0.04 ·10^-6 cm/s. In addition, the “transport after NaN3 treatment” value in data set [8] (30 min treatment with 1.5 mM sodium azide prior to the permeability assay) is recorded as “very significantly (p < 0.001) inhibited”. In data set [8] (concentration 100 µM), this compound showed a Relative transport of 100±39. Further, the Relative transport in data set [8] (concentration 200 µM) turned out to be 110±6. In data set [8] (concentration 500 µM), this compound gave a Relative transport of 86±6. The solubility limit in data set [9] is ~1200 nmol.
